Assay results published in publication PMC5454391, “Improving 10-deacetylbaccatin III-10-β-O-acetyltransferase catalytic fitness for Taxol production” (Nature Communications, 2017).
Positions count from the first letter of the chain named.

Experiments:
Type in all cases: biochemical
[1] = molecular target: T1, DBAT of T. canadensis (Taxus canadensis, UniProt B5KRF5); experiment: HPLC of Taxol formed; settings: 500 μM acetyl-CoA, 50 mM sodium acetate pH 5.5, […], 180 min
T1 sequence (B5KRF5 1-440): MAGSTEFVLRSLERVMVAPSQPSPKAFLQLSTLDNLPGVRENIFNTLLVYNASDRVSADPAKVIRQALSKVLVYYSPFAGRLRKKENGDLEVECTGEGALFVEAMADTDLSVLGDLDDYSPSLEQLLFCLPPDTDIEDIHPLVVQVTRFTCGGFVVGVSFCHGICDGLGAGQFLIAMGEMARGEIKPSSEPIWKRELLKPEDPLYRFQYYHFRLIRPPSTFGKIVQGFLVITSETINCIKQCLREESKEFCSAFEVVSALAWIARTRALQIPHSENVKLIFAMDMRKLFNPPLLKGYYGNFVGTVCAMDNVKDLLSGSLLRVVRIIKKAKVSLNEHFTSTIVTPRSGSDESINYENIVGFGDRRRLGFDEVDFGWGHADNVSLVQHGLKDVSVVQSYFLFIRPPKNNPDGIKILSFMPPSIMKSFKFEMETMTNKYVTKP

[2] = molecular target: T2, DBAT of T. wallichiana var. (Taxus mairei, UniProt B5KRG1); experiment: HPLC of Taxol formed; settings: 500 μM acetyl-CoA, 50 mM sodium acetate pH 5.5, […], 180 min
T2 sequence (B5KRG1 1-440): T1 sequence (B5KRF5 1-440) with L9V, L123H, V158M, F228S, L294S, I352V, M422V

[3] = molecular target: T3, DBAT of T. x media (Taxus x media, UniProt Q6SQJ5); experiment: HPLC of Taxol formed; settings: 500 μM acetyl-CoA, 50 mM sodium acetate pH 5.5, […], 180 min
T3 sequence (Q6SQJ5 1-440): T1 sequence (B5KRF5 1-440) with L9V, A58V, R213Q, R216C, F228S, L294S, M422V

[4] = molecular target: T4, DBAT of T. brevifolia (Taxus brevifolia, UniProt B5KRG4); experiment: HPLC of Taxol formed; settings: 500 μM acetyl-CoA, 50 mM sodium acetate pH 5.5, […], 180 min
T4 sequence (B5KRG4 1-440): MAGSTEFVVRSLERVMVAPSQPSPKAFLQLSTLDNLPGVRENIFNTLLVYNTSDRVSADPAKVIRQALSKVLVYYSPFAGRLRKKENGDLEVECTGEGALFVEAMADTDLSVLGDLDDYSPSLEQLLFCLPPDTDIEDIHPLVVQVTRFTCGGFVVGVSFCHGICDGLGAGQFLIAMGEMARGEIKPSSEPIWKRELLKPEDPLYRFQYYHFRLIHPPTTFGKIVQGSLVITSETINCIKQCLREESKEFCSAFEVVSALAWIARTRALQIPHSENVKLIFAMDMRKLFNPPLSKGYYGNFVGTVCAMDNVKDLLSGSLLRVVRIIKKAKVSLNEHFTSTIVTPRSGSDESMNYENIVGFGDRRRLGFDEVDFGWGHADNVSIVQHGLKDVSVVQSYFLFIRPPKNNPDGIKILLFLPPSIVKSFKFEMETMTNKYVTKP

[5] = molecular target: T3, DBAT of T. x media; experiment: HPLC of baccatin III formed; settings: 500 μM acetyl-CoA, 50 mM sodium acetate pH 5.5, 40 °C, 20 min
[6] = molecular target: T1, DBAT of T. canadensis; experiment: HPLC of baccatin III formed; settings: 500 μM acetyl-CoA, 50 mM sodium acetate pH 5.5, 40 °C, 20 min
[7] = molecular target: T2, DBAT of T. wallichiana var.; experiment: HPLC of baccatin III formed; settings: 500 μM acetyl-CoA, 50 mM sodium acetate pH 5.5, 40 °C, 20 min

SMILES	HPLC of Taxol formed [1]	HPLC of Taxol formed [2]	HPLC of Taxol formed [3]	HPLC of Taxol formed [4]	HPLC of baccatin III formed [5]	HPLC of baccatin III formed [6]	HPLC of baccatin III formed [7]
CC(=O)O[C@@]12CO[C@@H]1C[C@H](O)[C@@]1(C)C(=O)[C@H](O)C3=C(C)[C@@H](OC(=O)[C@H](O)[C@@H](NC(=O)c4ccccc4)c4ccccc4)C[C@@](O)([C@@H](OC(=O)c4ccccc4)[C@H]21)C3(C)C [compound 2, DT]	all other recombinant enzymes exhibited acetylation activity against 10-DAB and DT	all other recombinant enzymes exhibited acetylation activity against 10-DAB and DT	all other recombinant enzymes exhibited acetylation activity against 10-DAB and DT	the DBATs of T. cuspidata and T. brevifolia showed the highest specific activities			
CC(=O)O[C@@]12CO[C@@H]1C[C@H](O)[C@@]1(C)C(=O)[C@H](O)C3=C(C)[C@@H](O)C[C@@](O)([C@@H](OC(=O)c4ccccc4)[C@H]21)C3(C)C [compound 1, 10-DAB]					T. x media origins showed similar conversion rates for 10-DAB	all other recombinant enzymes exhibited acetylation activity against 10-DAB and DT	all other recombinant enzymes exhibited acetylation activity against 10-DAB and DT
